From article PMC5412686 (Biopharmaceutics & Drug Disposition, 2017)
In brackets after ≈: the same amount, converted by molar mass. Read-outs that look alike come from different tables or passages of the source.

Key:
[1] = ref Supplemental Table S1, cited from earlier work; for HBD: number of hydrogen bond donors; for log D: octanol/water at pH 7.4; for PSA: polar surface area
[2] = cited from earlier work
[3] = Rats, blood/plasma ratio; ref Supplemental Table S1; cited from earlier work
[4] = Rats, fraction unbound; ref Supplemental Table S1; cited from earlier work
[5] = Humans, cited from earlier work; for Urinary excretion (f e): excreted unchanged in urine, ref Supplemental Table S1; for F: oral bioavailability; for F / CL / Vss: ref Supplemental Table S2; for CL: i.v.
[6] = Humans, blood/plasma ratio; ref Supplemental Table S1; cited from earlier work
[7] = Solubility in fasted state simulated intestinal fluid; type: physicochemical; details: FaSSIF, 37 °C, pH 6.5, fassif, thermodynamic from solid
[8] = Rat i.v. and oral pharmacokinetics from literature; type: in vivo, rats; details: liver blood flow 80 ml/min/kg
[9] = Intrinsic metabolic clearance determined in human liver microsomes; type: in vitro ADME; details: pH 7.4
[10] = human, Caco-2, pH 7.4, with cyclosporine A 10 μM
Caco‐2 cells (TC7 clone) = details: Equation 11 from measured P‐Caco2
[11] = no medium marked (buffer pH 7.4); ref Supplemental Table S1; cited from earlier work
[12] = Humans, fraction unbound in plasma; ref Supplemental Table S1; cited from earlier work
[13] = Rats, i.v., ref Supplemental Table S2

| SMILES | HBD [1] | log D [1] | PSA [1] | F ([2]; rat, in vivo, po) | R b [3] | f up [4] | Urinary excretion (f e) [5] | F [5] | R b [6] | solubility at 24 h [7] [µg/mL] | CL [2, 13] [mL/min/kg] | CL [5] [L/h] | Vss [5] [L/kg] | Rat blood clearance compared with liver blood flow [8] | microsomal CLint at 1 μM [9] [µL/min/mg] | Papp at 2 h, 1 μM [10] [×10⁻⁶ cm/s] | Calculated P eff from P‐Caco2 (Caco‐2 cells (TC7 clone)) | Solubility (Biorelevant media or Buffer, pH 7.4) [11] [mg/ml] | f up [12] | Base pKa [1] | other results |
| --- | --- | --- | --- | --- | --- | --- | --- | --- | --- | --- | --- | --- | --- | --- | --- | --- | --- | --- | --- | --- | --- |
| CCOC(=O)C1=C(C)NC(C)=C(C(=O)OC)C1c1cccc(Cl)c1Cl (centres unmarked) [Felodipine] | 1 | 4.76 | 68.7 | 0.1 | 0.68 | 0.001 | < 1 % of dose | 0.25 | 0.7 | 40 (≈ 104 µM) | – | – | – | – | – | – | – | – | – | – | Acid pKa [1]: 5.1 |
| CCOC(=O)C1=C(C)NC(C)=C(C(=O)OC)C1c1cccc([N+](=O)[O-])c1 (centres unmarked) [Nitrendipine] | 1 | 3.81 | 112.9 | 0.12 | 1.46 | – | < 1 % of dose | 0.39 | 1.46 | 8 (≈ 22.2 µM) | 16.5 | 78.89 | 5.39 | – | – | – | – | – | – | – | – |
| Cc1ccc(O)c([C@H](CCN(C(C)C)C(C)C)c2ccccc2)c1 [Tolterodine] | 1 | 2.38 | 24.1 | 0.02 | – | – | – | 0.72 | – | – | 166.7 | 27.72 | 1.4 | exceeding maximum liver blood flow value | 115 | 26.2 | 3.6 10^−4 cm/s | 12 | – | – | – |
| CN1CCN(C2=Nc3cc(Cl)ccc3Nc3ccccc32)CC1 [Clozapine] | 1 | 2.99 | 25.6 | – | – | 0.1 | < 1 % of dose | – | – | 350 (≈ 1070 µM) | – | 13.02 | – | – | – | 28.4 | 3.7 10^−4 cm/s | – | 0.06 | – | – |
| CC(C)(C)NC(=O)[C@@H]1C[C@@H]2CCCC[C@@H]2CN1C[C@@H](O)[C@H](Cc1ccccc1)NC(=O)[C@H](CC(N)=O)NC(=O)c1ccc2ccccc2n1 [Saquinavir] | 5 | 5.05 | 178.8 | 0.07 | – | 0.05 | – | – | – | – | – | – | – | – | – | 5 | 1.6 10^−4 cm/s | 2.22 | 0.03 | 7.7 | CL ([2]; rat, in vivo, iv): 88.5 mL/min/kg |
| CCOC(=O)c1ncn2c1CN(C)C(=O)c1cc(F)ccc1-2 [Flumazenil] | 0 | 0.87 | 57.0 | 0.28 | – | 0.14 | 0.5 % of dose | – | 1 | – | 147 | 72.06 | 0.97 | exceeding maximum liver blood flow value | 39 | – | – | 0.13 | – | – | – |
| Cc1nnc2n1-c1ccc(Cl)cc1C(c1ccccc1)=NC2 [Alprazolam] | 0 | – | 33.3 | – | 0.81 | 0.35 | 20 % of dose | 0.96 | 0.78 | – | 133 | 3.11 | – | exceeding maximum liver blood flow value | < 10 | 38.6 | 4.3 10^−4 cm/s | 40 | – | – | F ([2]; Rats, oral bioavailability, ref Supplemental Table S2): 0.28 |
| CN(C)CCCN1c2ccccc2Sc2ccc(Cl)cc21 [Chlorpromazine] | 0 | 2.82 | 1.8 | 0.02 | – | 0.01 | – | 0.31 | – | 814 (≈ 2550 µM) | – | 76.6 | 8.88 | – | 47 | – | – | – | 0.06 | 9.7 | CL ([2]; rat, in vivo, iv): 52 mL/min/kg |
| COC(=O)C1=C(C)NC(C)=C(C(=O)OCCN(C)Cc2ccccc2)C1c1cccc([N+](=O)[O-])c1 (centres unmarked) [Nicardipine] | 1 | – | 114.0 | 0.22 | – | 0.01 | – | – | – | 227 (≈ 473 µM) | – | – | – | – | – | – | – | – | – | 7.3 | – |
